Key:
Type in all cases: cell-based
MCF-7 cells = assay: Filipodia/lamellipodia development of TGF-induced cells on Matrigel, Giemsa stain (FIG. 3, FIG. 5)
Description: About 1×10^5 Breast cancer cells (MCF-7) treated with DMSO or SD29-14 for 48 h were resuspended in serum free MEM media and were then plated on 1:6 diluted (with serum free media) matrigel (Basement membrane mimic) in the presence of Transforming Growth Factor (TGFbeta) which is a known inducer of EMT that lead to the migration-(Lamouille and Derynck (2009)), with DMSO or with SD29-14 and the cells were allowed to grow for 20 h on Matrigel. After incubation, media and matrigels were carefully removed and adherent cells were washed three times with 1×PBS; to visualize cells, cells were incubated with Giemsa Stain (Sigma-Aldrich) (1:20 with water) for 10 minutes, washed in water until no blue color rinsed out from the well images under a Zeiss Compound microscope.
(§1) Efficacy for inhibiting migration at a lower concentration of a representative compound was also investigated. Cancer cell lines were treated under conditions as used above for FIG. 2 and FIG. 3 but with both 10 μM and 100 μM SD29-14.
The experimental methods, except for the different cell line, are essentially same as stated above as to FIG. 4.

[1] = system: RACK1 / LamB1 co-localization; assay: Co-localization of RACK1 with ECM protein LamB1, immunofluorescence (FIG. 11); conditions: U251 cells, TGFbeta1, 72 h
Description: For effective migration, cell adhesion to the ECM is necessary and cell surface localized integrin molecules (alpha and beta) act as a link between the ECM and cell interior by acting as a receptor of the ECM proteins and linking ECM to the intracellular cytoskeleton complex. It is known that RACK1 acts as an integrin binding protein (Hermanto et al., 2002) and interaction between RACK1 and β1 integrin has been reported to mediate cancer cell invasion as reported in prostate cancer invasion and metastasis (Trerotola et al., 2012). RACK1 can promote tumor cell migration by using its scaffolding ability to bridge together different signaling proteins that integrate signaling from receptors cytoskeleton reorganization pathways. Laminin being a major ECM protein can therefor interact with integrins for cell adhesion and in this regard is expected to modulate by the RACK1 proteins scaffolding ability as discussed above. […] Lack of colocalization indicate that the link between the ECM proteins and intracellular cytoskeleton complex are interrupted and as such inhibiting this complex mediated migration signaling pathways.
As to FIG. 11, and methods of Immunofluorescence and confocal microscopy, U251 cells were grown to about 80% confluency in 12 well plate on glass cover slips and the cells were co-treated with the TGFb and indicated compounds for 72 h. […]

U251 cells = assay: Filipodia/lamellipodia development of TGF-induced cells on Matrigel, Giemsa stain (FIG. 2, FIG. 4)
Description: After incubation, media and matrigels were carefully removed and adherent cells were washed three times with 1×PBS; to visualize cells, cells were incubated with Giemsa Stain (Sigma-Aldrich) (1:20 with water) for 10 minutes, washed in water until no blue color rinsed out from the well images under a Zeiss Compound microscope.
It is shown in the FIG. 2 and FIG. 3 that 100 uM of SD 29-14 is effective in inhibiting the migration potential of the two different representative cancer cell lines, which establishes this drug as a candidate anti-metastasis drug for treating against cancers where a role of RACK1 upregulation is or has been shown in the metastasis process. There are many reviews on the RACK1 protein the cancer cell migration (e.g., Li and Xie, 2015; Duff and Long, 2017, among others).
as §1

[2] = Toxicity judged from DAPI treated cell nucleus in immunofluorescence experiments; conditions: 100 μM
Description: However, 100 μM might be a high concentration or dosing and may be higher than physiologically potent concentration.

FAK = assay: Localization of FAK, immunofluorescence (FIG. 13); conditions: versus DMSO+TGF (5 ng/ml) control
Description: FIG. 13 presents in photomicrographs a comparison between an illustrative cancer in which the treatment involved using DMSO+TGF (5 ng/ml) as a control and the illustrative cancer cell in which the in vitro treatment involved using a compound according to a formulae (1), (2) or (3) herein+TGF (5 ng/ml). The block of four photomicrographs on the left is for the control. […] Inability to co-localize would inhibit the downstream modifications of FAK reported as needed for migration.
As to FIGS. 12 and 13, cells were grown to almost 80% confluency and then serum starved for 24 hours. Then treated with the representative compound SD 29-14 for additional 24 h. No TGFbeta1 was used in this assay. After 24 h, cells were prepared for the immunofluorescence imaging essentially with the same procedure as described for FIG. 9. The antibody for the FAK was purchased from GeneTex (Irvine, CA). The secondary was rabbit TRITC. The primary RACK1 antibody coupled with a FITC reporter was purchased from Santa Cruz Biotechnology (Dallas, TX).

## Nn1c(S)nnc1-c1cc(Cl)cc(Cl)c1 [SD 29-14]
MCF-7 cells; 10 μM, 72 h grown (FIG. 5)
  efficacy to inhibit filipodia and lamellipodia development: maintained
MCF-7 cells; 100 uM, TGF-beta on Matrigel, 48 h treated then 20 h on Matrigel
  filipodia and lamellipodia development: the development of both filipodia and lamellipodia was inhibited
[1]
  co-localization of RACK1 and Lamb1 at the cell surface: this interaction was absent
U251 cells; 10 μM, 72 h grown (FIG. 4)
  efficacy to inhibit filipodia and lamellipodia development: maintained
U251 cells; 100 uM, TGF on Matrigel, 48 h treated then 20 h on Matrigel
  filipodia and lamellipodia development: inhibition of the filipodia and lamellipodia development
[2]
  toxicity to cells (uniform DAPI treated cell nucleus, drug treated vs non-treated): not exposed to a toxic amount
FAK
  localization of FAK: blocks localization of FAK

— patent US12629355B2, “Drug inhibitor against migration and invasion of cancer cells and methods of treating against metastasis of cancer cells” (HOWARD UNIVERSITY, priority 2019, dated 2026)
